A short description of data set [1]: Combination therapy (ALA photodynamic therapy plus imiquimod) in a patient with warts. Format: in vivo. The conditions noted are these: Example 7: ALA topical cream, white light several hours later, then reduced course of imiquimod. As to the method: A patient with warts is administered ALA in the form of a topical cream, which is applied to the affected area. Several hours after administration of the ALA, the patient is exposed to white light. Subsequently, the patient is administered a reduced course of imiquimod therapy.

The conditions of data set [2]: cited from earlier work.
A short description of data set [3]: Combination therapy (ALA photodynamic therapy plus alefacept) in patients with psoriasis. Format: in vivo, patient. The conditions noted are these: for alleviation of symptoms: then reduced course of alefacept.
The test system of data set [4] is Basal Cell Carcinoma. Kind of data set: Combination therapy (ALA photodynamic therapy plus imiquimod) in a patient with Basal Cell Carcinoma. Format: in vivo. The conditions noted are these: Example 3: ALA topical cream, red light several hours later, then a course of imiquimod. The procedure:
A patient with a Basal Cell Carcinoma is administered ALA in the form of a topical cream, which is applied to the affected areas. Several hours after administration of the ALA, the patient is exposed to an activating red light. Subsequently, the patient is administered a course of imiquimod therapy.

With `NCC(=O)CCC(=O)O` [ALA, 5-Amino-4-oxopentanoic acid], the alleviation of symptoms result in data set [1] is “alleviation of symptoms soon after receiving the treatment”; in data set [3] (Example 4: ALA topical cream, activating light several hours later), “alleviation of symptoms soon after receiving the treatment”; in data set [3] (Example 5: ALA i.v. injection, 5 J/cm^2 of 417 nm blue light after one to three hours), “alleviation of symptoms soon after receiving the treatment”; in data set [3] (Example 6: oral ALA, 10 J/cm^2 of 417 nm blue light after one to three hours), “alleviation of symptoms soon after receiving the treatment”. Moreover, the solubility in water entry in data set [2] is “water soluble”. The improvement of psoriasis entry in data set [3] (Example 1: several patients, topical ALA, then Intense Pulsed Light (IPL), then alefacept as normally done) is listed as “almost immediate improvements”. In addition, the “return of psoriatic symptoms after cessation of alefacept therapy” value in data set [3] (Example 2: topical ALA and blue light after a completed alefacept treatment cycle) was “less return of their psoriatic symptoms”. Moreover, in data set [4], the “resolution of the cancerous lesion” value was “rapid and complete resolution of the cancerous lesion”.

(Values after patent publication US20090192071A1, “USE OF PHOTODYNAMIC THERAPY TO ENHANCE TREATMENT WITH IMMUNO-MODULATING AGENTS” (DUSA PHARMACEUTICALS, INC., priority 2004, published 2009).)
